In patent publication US20240336606A1 (Suzhou Zelgen Biopharmaceuticals Co., Ltd., priority 2020, published 2024):

Target: T1, binding of KRAS^G12C to SOS1 (Homo sapiens, UniProt Q07889)
T1 construct: Tag1 (unspecified)
T1 sequence (Q07889 1-1333): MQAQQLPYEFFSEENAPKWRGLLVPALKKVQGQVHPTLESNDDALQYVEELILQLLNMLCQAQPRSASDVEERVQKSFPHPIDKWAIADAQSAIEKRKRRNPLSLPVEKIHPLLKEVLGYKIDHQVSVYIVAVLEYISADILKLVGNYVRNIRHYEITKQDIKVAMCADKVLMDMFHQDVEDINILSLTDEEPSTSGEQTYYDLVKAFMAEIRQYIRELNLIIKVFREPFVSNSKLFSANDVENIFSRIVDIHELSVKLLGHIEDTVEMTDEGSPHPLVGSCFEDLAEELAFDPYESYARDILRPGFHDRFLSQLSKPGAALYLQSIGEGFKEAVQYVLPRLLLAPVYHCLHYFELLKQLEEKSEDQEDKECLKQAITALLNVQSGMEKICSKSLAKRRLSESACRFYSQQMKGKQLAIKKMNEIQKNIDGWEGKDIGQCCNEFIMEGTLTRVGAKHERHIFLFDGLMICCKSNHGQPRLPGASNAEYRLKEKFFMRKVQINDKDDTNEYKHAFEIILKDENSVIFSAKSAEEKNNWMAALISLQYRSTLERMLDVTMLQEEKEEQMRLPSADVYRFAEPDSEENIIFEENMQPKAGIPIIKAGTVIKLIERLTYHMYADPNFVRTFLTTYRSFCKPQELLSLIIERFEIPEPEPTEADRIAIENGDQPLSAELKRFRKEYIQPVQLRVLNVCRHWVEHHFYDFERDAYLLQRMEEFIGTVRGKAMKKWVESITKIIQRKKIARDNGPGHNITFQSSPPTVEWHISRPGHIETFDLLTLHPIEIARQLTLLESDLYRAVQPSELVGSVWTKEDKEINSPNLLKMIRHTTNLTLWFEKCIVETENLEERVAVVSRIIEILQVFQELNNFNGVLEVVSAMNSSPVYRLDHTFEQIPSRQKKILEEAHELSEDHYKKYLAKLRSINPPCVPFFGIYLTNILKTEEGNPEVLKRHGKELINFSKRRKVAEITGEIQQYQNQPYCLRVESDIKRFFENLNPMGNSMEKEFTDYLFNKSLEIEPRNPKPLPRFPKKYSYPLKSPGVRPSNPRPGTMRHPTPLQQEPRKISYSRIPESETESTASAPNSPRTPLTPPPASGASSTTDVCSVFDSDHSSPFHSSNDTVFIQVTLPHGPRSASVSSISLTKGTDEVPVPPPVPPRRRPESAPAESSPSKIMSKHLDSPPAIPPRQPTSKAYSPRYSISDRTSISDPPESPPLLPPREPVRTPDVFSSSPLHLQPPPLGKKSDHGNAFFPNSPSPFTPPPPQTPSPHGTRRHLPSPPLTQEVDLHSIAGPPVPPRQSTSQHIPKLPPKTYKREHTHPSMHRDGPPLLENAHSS
Assay: Inhibition of the binding of KRAS^G12C to SOS1
Conditions: Tag1-SOS1 / Tag2-KRAS^G12C, 2 h incubation at room temperature; read-out: IC50 (nM), inhibitory activity on the binding of KRAS^G12C to SOS1
Method: • (1) Gradient dilution of the test compounds: 10 mM mother solution (dissolved in 100% DMSO) was added to a 384-well test plate, the final content of DMSO being 0.25%.
(2) 5 μL of Tag1-SOS1 solution was added to the test plate, and 5 μL of dilution buffer was added to the control group.
(3) 5 μL of Tag2-KRAS^G12C solution was added to the test plate.
(4) 10 μL of Anti-Tag1-Tb3+ and Anti-Tag2-XL665 detection solution were added to the test plate. The plate was centrifuged at 1000 rpm for 1 min and incubated at room temperature for 2 h.
(6) The IC50 values for the compounds were finally calculated using GraphPad Prism software, and a curve was fit and plotted.
The inhibitory activity of the compounds of the examples of the present invention on the binding of KRAS^G12C enzyme to SOS1 is shown in Table 1.

Row | Compound | IC50
1 | COc1cc2nc(C)nc(N[C@H](C)c3cccc(C(F)(F)F)c3F)c2cc1OC[C@@H]1CCCN1 [Example 17, N—((R)-1-(2-Fluoro-3-(trifluoromethyl)phenyl)ethyl)-7-methoxy-2-methyl-6-(((S)-pyrrolin-2-yl)methoxy)quinazolin-4-amine] | 70 nM
2 | COc1cc2nc(C)nc(N[C@H](C)c3cc(N)cc(C(F)(F)F)c3)c2cc1OCCOC1(C)CCC1 [Example 64, (R)—N-(1-(3-Amino-5-(trifluoromethyl)phenyl)ethyl)-7-methoxy-2-methyl-6-(2-(1-methylcyclobutoxy)ethoxy)quinazolin-4-amine] | 8.7 nM
3 | COCC1(COc2cc3c(N[C@H](C)c4cc(N)cc(C(F)(F)F)c4)nc(C)nc3cc2OC)COC1 [Example 43, (R)—N-(1-(3-Amino-5-(trifluoromethyl)phenyl)ethyl)-7-methoxy-6-((3-(methoxymethyl)oxetan-3-yl)methoxy)-2-methylquinazolin-4-amine] | 5.2 nM
4 | COCCOc1cc2c(N[C@H](C)c3cc(N)cc(C(F)(F)F)n3)nc(C)nc2cc1OC [Example 52, (R)—N-(1-(4-Amino-6-(trifluoromethyl)pyridin-2-yl)ethyl)-7-methoxy-6-(2-methoxyethoxy)-2-methylquinazolin-4-amine] | 31 nM
5 | COc1cc2nc(C)nc(N[C@H](C)c3cccc(C(F)(F)C(C)(C)O)c3F)c2cc1OCCN(C)CC1CC(F)(F)C1 [Example 19] | 9.4 nM
6 | COc1cc2nc(C)nc(N[C@H](C)c3cccc(C(F)(F)C(C)(C)O)c3F)c2cc1OC[C@@H]1CNCCO1 [Example 24] | 7.7 nM
7 | COc1cc2nc(C)nc(N[C@H](C)c3cc(N)cc(C(F)(F)F)c3)c2cc1OCCOCC1CC1 [Example 58, (R)—N-(1-(3-Amino-5-(trifluoromethyl)phenyl)ethyl)-6-(2-(cyclopropylmethoxy)ethoxy)-7-methoxy-2-methylquinazolin-4-amine] | 5.1 nM
8 | COc1cc2nc(C)nc(N[C@H](C)c3cc(N)cc(C(F)(F)F)c3)c2cc1OCCOC1CCC1 [Example 49, (R)—N-(1-(3-Amino-5-(trifluoromethyl)phenyl)ethyl)-6-(2-cyclobutoxyethoxy)-7-methoxy-2-methylquinazolin-4-amine] | 4.6 nM
9 | COc1cc2nc(C)nc(N[C@H](C)c3cc(N)nc(C(F)(F)F)c3)c2cc1OCCOC1CC1 [Example 41, (R)—N-(1-(2-Amino-6-(trifluoromethyl)pyridin-4-yl)ethyl)-6-(2-cyclopropoxyethoxy)-7-met hoxy-2-methylquinazolin-4-amine] | 252 nM
10 | COc1cc2nc(C)nc(N[C@H](C)c3cc(N)cc(C(F)(F)F)c3)c2cc1OCC1(C(C)OC)CC1 (single isomer, unassigned) [Example 65A] | 18 nM
11 | COCC(COC)Oc1cc2c(N[C@H](C)c3cc(N)cc(C(F)(F)F)c3)nc(C)nc2cc1OC [Example 59, (R)—N-(1-(3-Amino-5-(trifluoromethyl)phenyl)ethyl)-6-((1,3-dimethoxypropan-2-yl)oxy)-7-methoxy-2-methylquinazolin-4-amine] | 4.7 nM
12 | COCCOc1cc2c(N[C@H](C)c3cc(OC)cc(C(F)(F)C(C)(C)O)c3)nc(C)nc2cc1OC [Example 87, (R)-1,1-Difluoro-1-(3-methoxy-5-(1-((7-methoxy-6-(2-methoxyethoxy)-2-methylquinazolin-4-yl)amino)ethyl)phenyl)-2-methylpropan-2-ol] | 170 nM
13 | COc1cc2nc(C)nc(N[C@H](C)c3cc(N)cc(C(F)(F)F)c3)c2cc1OCCOC1CC1 [Example 7, (R)—N-(1-(3-amino-5-(trifluoromethyl)phenyl)ethyl)-6-(2-cyclopropoxy)-7-methoxy-2-meth ylquinazolin-4-amine] | 3.3 nM
14 | COc1cc2nc(C)nc(N[C@H](C)c3cc(N)cc(C(F)(F)F)c3)c2cc1OC[C@@H]1CCCO1 [Example 39, N—((R)-1-(3-Amino-5-(trifluoromethyl)phenyl)ethyl)-7-methoxy-2-methyl-6-(((S)-tetrahydrofuran-2-yl)methoxy)quinazolin-4-amine] | 21 nM
